From ChEMBL document CHEMBL4765425, “Synthesis of 1,3,4-oxadiazole derivatives with anticonvulsant activity and their binding to the GABA receptor” (Eur J Med Chem, 2020) come the findings set out here.

Calls of active or inactive are those of the source. The calls are words filed in the database; no cut-off is given here.

Data set [1] is described as follows: Neurotoxicity in Kunming mouse at 100 mg/kg, ip measured after 30 mins by rotarod test. The data set is classed as toxicity, organism-based. Particulars: in vivo, 0.5 h. On the technique in general: Falling from the rotarod earlier than controls is read as motor impairment.
The subject of data set [2] is Mus musculus. Briefly: Anticonvulsant activity in Kunming mouse assessed as reduction in MES-induced seizure at 30 mg/kg, ip measured after 30 mins. The data set is classed as functional, organism-based.
Data set [3] in a line: Neurotoxicity in Kunming mouse at 300 mg/kg, ip measured after 30 mins by rotarod test. The data set is classed as toxicity, organism-based. The following applies: in vivo, 0.5 h.
Data set [4] deals with Mus musculus. Description: Anticonvulsant activity in Kunming mouse assessed as reduction in MES-induced seizure at 300 mg/kg, ip measured after 30 mins. In kind it is functional, organism-based.
Data set [5] has as its system Mus musculus. Briefly: Anticonvulsant activity in Kunming mouse assessed as reduction in ScPTZ-induced seizure at 300 mg/kg, ip measured after 30 mins. In kind it is functional, organism-based.
Data set [6] concerns Mus musculus. Description: Anticonvulsant activity in Kunming mouse assessed as reduction in MES-induced seizure at 100 mg/kg, ip measured after 30 mins. The data set is classed as functional, organism-based.
Data set [7] deals with Mus musculus. Description: Anticonvulsant activity in Kunming mouse assessed as reduction in ScPTZ-induced seizure at 100 mg/kg, ip measured after 30 mins. The data set is classed as functional, organism-based.
Data set [8] is described as follows: Protection index, ratio of TD50 for neurotoxicity in ip dosed Kunming mouse to ED50 for anticonvulsant activity in ip dosed MES-induced Kunming mouse. In kind it is toxicity, organism-based. The following applies: in vivo, read-out: TI.
Data set [9] can be described thus: Displacement of [3H]flunitrazepam from GABA-A receptor benzodiazepine site in mouse cerebellum synaptosomal membrane. In kind it is subcellular, Synaptosome. (Loss of bound radioactivity is the signal in a displacement assay; it reports binding, not function.)
In data set [10] the test system is Mus musculus. Briefly: Anticonvulsant activity in ip dosed Kunming mouse assessed as reduction in MES-induced seizure measured after 30 mins. Particulars: 0.5 h. The data set is classed as functional.
Data set [11] is described as follows: Protection index, ratio of TD50 for neurotoxicity in ip dosed Kunming mouse to ED50 for anticonvulsant activity in ip dosed ScPTZ-induced Kunming mouse. In kind it is toxicity, organism-based. Particulars: in vivo, read-out: TI.
Data set [12] has as its system Mus musculus. Briefly: Anticonvulsant activity in ip dosed Kunming mouse assessed as reduction in ScPTZ-induced seizure measured after 30 mins. In kind it is functional. The following applies: 0.5 h.
Data set [13] in a line: Neurotoxicity in ip dosed Kunming mouse measured after 30 mins by rotarod test. In kind it is toxicity, organism-based. The following applies: in vivo.

As for `CCCCSc1nnc(COc2ccc(NC(C)=O)cc2)o1`, the Activity entry in data set [1] and in data set [3] was “Non-Toxic” throughout. Moreover, the outcome in the data set with Mus musculus [2] was inactive.

`CC(=O)Nc1ccc(OCc2nnc(SCc3ccc(C)cc3)o2)cc1`: the outcome in the data set with Mus musculus [4] and in the data set with Mus musculus [5] was Active. In addition, the Activity result in data set [1] and in data set [3] was “Non-Toxic” each time.

For `Cc1ccc(CSc2nnc(COc3ccc4c(c3)CCC(=O)N4)o2)cc1`, the result in the data set with Mus musculus [4] and in the data set with Mus musculus [6] was Active. In addition, the Activity entry in [1] and in data set [3] was “Non-Toxic” each time.

In the case of `CCCCCCCCSc1nnc(COc2ccc(NC(C)=O)cc2)o1`, the Activity entry in data set [1] and in data set [3] was “Non-Toxic” each time. Besides, in the data set with Mus musculus [2], the outcome was inactive.

Take `CC(=O)Nc1ccc(OCc2nnc(SCc3cccc(C(F)(F)F)c3)o2)cc1`: the result in the data set on Mus musculus [4] and with Mus musculus [5] was Active. Further, the Activity entry in [1] and in data set [3] was “Non-Toxic” in each case.

For the molecule `CC(=O)Nc1ccc(OCc2nnc(SCc3ccccc3C)o2)cc1`, the outcome with Mus musculus [4] and in the data set on Mus musculus [5] was Active. Also, the Activity result in [1] and in data set [3] was “Non-Toxic” in each case.

As to `CCCCCCCCCSc1nnc(COc2ccc(NC(C)=O)cc2)o1`, the result in the data set with Mus musculus [7] and with Mus musculus [6] was inactive. Also, the Activity result in data set [1] and in [3] was “Non-Toxic” in each case.

As a reminder, the IC50 is the concentration that gives 50% inhibition. The low end stands for greater potency, the high end for weaker potency. For orientation: ED50 means the midpoint of the dose-response relation. In general, TD50 refers to the dose at which the toxic effect under study appears in half of the subjects. For `CCCCCSc1nnc(COc2ccc(NC(C)=O)cc2)o1`, the selectivity ratio in data set [8] stood at 17.2; in [11] it was 13.8. Besides, the result in the data set with Mus musculus [7] and in the data set with Mus musculus [6] was Active. Moreover, the half-inhibitory concentration (IC50) in data set [9] amounted to 1.29 µM. The Activity entry in data set [1] and in data set [3] was “Non-Toxic” throughout. For the same molecule, the ED50 amounted to 22.6 mg/kg in the data set on Mus musculus [10] and 28.1 mg/kg in the data set on Mus musculus [12]. For the same molecule, the TD50 at 0.5 h in data set [13] was 389 mg/kg.

Regarding `CC(=O)Nc1ccc(OCc2nnc(SCc3cccc(F)c3)o2)cc1`, the outcome in the data set on Mus musculus [7] and in the data set with Mus musculus [6] was inactive. Moreover, the Activity result in data set [1] and in [3] was “Non-Toxic” each time.

On to `CCCCSc1nnc(COc2ccc(-n3cnnc3)cc2)o1`, for which the result with Mus musculus [4] was Active. In addition, the Activity entry in data set [1] and in data set [3] was “Non-Toxic” in each case.

Regarding `CCCCCCCCCSc1nnc(COc2ccc3c(c2)CCC(=O)N3)o1`, the result in the data set with Mus musculus [7] was inactive. Moreover, the result with Mus musculus [4] was Active. Besides, the Activity result in data set [1] and in data set [3] was “Non-Toxic” each time.

Take `CCCCCCCCSc1nnc(COc2ccc3c(c2)CCC(=O)N3)o1`: the result with Mus musculus [4] was Active. The Activity entry in data set [1] and in [3] was “Non-Toxic” throughout. The outcome in the data set with Mus musculus [2] was inactive.

For `O=C1CCc2cc(OCc3nnc(SCc4cccc(F)c4)o3)ccc2N1`, the Activity entry in data set [1] and in [3] was “Non-Toxic” each time.

For the molecule `Cc1cccc(CSc2nnc(COc3ccc4c(c3)CCC(=O)N4)o2)c1`, the result in the data set on Mus musculus [4] and in the data set with Mus musculus [5] was Active. Further, the Activity result in data set [1] and in data set [3] was “Non-Toxic” each time.

For `CC(=O)Nc1ccc(OCc2nnc(SCc3ccccc3C(F)(F)F)o2)cc1`, the Activity entry in data set [1] and in data set [3] was “Non-Toxic” throughout.

Consider `O=C1CCc2cc(OCc3nnc(SCc4ccccc4)o3)ccc2N1`, for which, in the data set with Mus musculus [4], the outcome was Active. For the same molecule, the Activity entry in [1] and in data set [3] was “Non-Toxic” throughout.

`CCCCCCCSc1nnc(COc2ccc3c(c2)CCC(=O)N3)o1`: in the data set on Mus musculus [4], the outcome was Active. Moreover, the Activity entry in data set [1] and in data set [3] was “Non-Toxic” in each case.

Regarding `CC(=O)Nc1ccc(OCc2nnc(SCc3ccc(C(F)(F)F)cc3)o2)cc1`, the outcome with Mus musculus [7] and in the data set on Mus musculus [6] was Active. The Activity result in [1] and in data set [3] was “Non-Toxic” each time.

Regarding `CCCCSc1nnc(COc2ccc3c(c2)CCC(=O)N3)o1`, the outcome in the data set with Mus musculus [4] and in the data set with Mus musculus [5] was Active. Moreover, the Activity entry in data set [1] and in [3] was “Non-Toxic” in each case.

Regarding `CC(=O)Nc1ccc(OCc2nnc(SCc3ccccc3Cl)o2)cc1`, the outcome in the data set with Mus musculus [4] and in the data set with Mus musculus [5] was Active. Further, the Activity result in data set [1] and in data set [3] was “Non-Toxic” each time.

In the case of `CC(=O)Nc1ccc(OCc2nnc(SCc3ccc(F)cc3)o2)cc1`, the outcome in the data set on Mus musculus [4] and in the data set on Mus musculus [5] was Active. Besides, the Activity entry in data set [1] and in [3] was “Non-Toxic” in each case.

`O=C1CCc2cc(OCc3nnc(SCc4ccccc4C(F)(F)F)o3)ccc2N1`: the outcome in the data set with Mus musculus [4] and in the data set on Mus musculus [5] was Active. Further, the Activity result in data set [1] and in [3] was “Non-Toxic” in each case.

Regarding `CCC1(C)CC(=O)NC1=O` (stereo not given) [ETHOSUXIMIDE], in [1], the Activity entry is on record as “Non-Toxic”. Moreover, in [11], the selectivity ratio turned out to be 3.2. In addition, the ED50 in the data set on Mus musculus [12] worked out at 106 mg/kg. For the same molecule, in [13], the TD50 at 0.5 h was 343 mg/kg.

`O=C1CCc2cc(OCc3nnc(SCc4ccc(Cl)cc4)o3)ccc2N1`: in the data set on Mus musculus [7], the outcome was inactive. The Activity result in data set [1] and in data set [3] was “Non-Toxic” in each case.

As for `O=C1CCc2cc(OCc3nnc(SCc4ccccc4F)o3)ccc2N1`, the outcome in the data set on Mus musculus [4] and with Mus musculus [5] was Active. In addition, the Activity result in data set [1] and in [3] was “Non-Toxic” in each case.

In the case of `CC(=O)Nc1ccc(OCc2nnc(SCc3cccc(C)c3)o2)cc1`, the Activity entry in [1] and in data set [3] was “Non-Toxic” throughout.

Consider `O=C1CCc2cc(OCc3nnc(SCc4cccc(Cl)c4)o3)ccc2N1`, for which the result in the data set on Mus musculus [4] and in the data set with Mus musculus [5] was Active. Also, the Activity result in [1] and in [3] was “Non-Toxic” each time.

Turning to `CCCCCCSc1nnc(COc2ccc(-n3cnnc3)cc2)o1`, the values for the selectivity ratio in [8] and in data set [11] were 14.4 and 13.5, respectively. The outcome in the data set with Mus musculus [7] and in the data set with Mus musculus [6] was Active. Also, in data set [9], the IC50 is 9.31 µM. Also, the Activity entry in data set [1] and in data set [3] was “Non-Toxic” throughout. The ED50 in the data set on Mus musculus [10] came out at 26.6 mg/kg; with Mus musculus [12] it was 28.4 mg/kg. The TD50 at 0.5 h in [13] stood at 385 mg/kg.

Take `CCCCCCSc1nnc(COc2ccc(NC(C)=O)cc2)o1`: the selectivity ratio is 20.1 in data set [8] and 15.6 in data set [11]. Further, the outcome in the data set with Mus musculus [7] and in the data set on Mus musculus [6] was Active. Also, the IC50 in [9] was 4.12 µM. The Activity result in [1] and in data set [3] was “Non-Toxic” throughout. For the same molecule, the values for the ED50 with Mus musculus [10] and in the data set on Mus musculus [12] were 20.9 mg/kg and 26.8 mg/kg, respectively. In data set [13], this molecule registered a TD50 at 0.5 h of 420 mg/kg.

Take `O=C1CCc2cc(OCc3nnc(SCc4ccccc4Cl)o3)ccc2N1`: the outcome in the data set with Mus musculus [7] was inactive. In addition, the result in the data set on Mus musculus [4] was Active. Besides, the Activity entry in data set [1] and in data set [3] was “Non-Toxic” in each case.

Consider `CC(=O)Nc1ccc(OCc2nnc(SCc3ccc(Cl)cc3)o2)cc1`, for which the result in the data set with Mus musculus [7] and in the data set on Mus musculus [6] was inactive. For the same molecule, the Activity entry in data set [1] and in data set [3] was “Non-Toxic” each time.

Take `O=C1CCc2cc(OCc3nnc(SCc4cccc(C(F)(F)F)c4)o3)ccc2N1`: the result in the data set with Mus musculus [4] and in the data set on Mus musculus [5] was Active. The Activity result in data set [1] and in [3] was “Non-Toxic” in each case.

On to `O=C1CCc2cc(OCc3nnc(SCc4ccc(F)cc4)o3)ccc2N1`, for which the Activity result in [1] and in data set [3] was “Non-Toxic” throughout. For the same molecule, the outcome with Mus musculus [5] was Active. Further, in the data set with Mus musculus [6], the result was inactive.

Take `CC(=O)Nc1ccc(OCc2nnc(SCc3cccc(Cl)c3)o2)cc1`: the outcome in the data set with Mus musculus [7] and in the data set on Mus musculus [6] was inactive. The Activity result in data set [1] and in data set [3] was “Non-Toxic” in each case.

For the molecule `CCCCCCCSc1nnc(COc2ccc(NC(C)=O)cc2)o1`, the Activity result in [1] and in data set [3] was “Non-Toxic” throughout.

Take `CC(=O)Nc1ccc(OCc2nnc(SCc3ccccc3)o2)cc1`: the Activity result in data set [1] and in data set [3] was “Non-Toxic” each time.

Regarding `Cc1ccccc1CSc1nnc(COc2ccc3c(c2)CCC(=O)N3)o1`, the outcome with Mus musculus [4] and in the data set with Mus musculus [5] was Active. The Activity result in [1] and in data set [3] was “Non-Toxic” in each case.
